Structures are written as SMILES.

The viability is a read-out of living cells in per cent, often relative to untreated cells.

The data set in a line: in vitro. To be noted: human, hela cells, % viability.
As for `O=C1c2cccc3cccc(c23)C(=O)N1CCN1CCN(CC(O)COc2ccc3c(c2)OCO3)CC1` (centres unmarked) [CBK074849C], the viability at 28.5 h, 10 µM came to 87.4%.
Then `O=C(CCN1CCN(C(c2ccccc2)c2ccccc2)CC1)c1ccccc1` [CBK074788], with 111%.
Consider `CCn1c2cc(C)oc2c2cnn(CC(=O)N3CCCC3)c(=O)c21` [CBK284215], for which the viability at 28.5 h, 10 µM turned out to be 101%.
As for `CC(CCCC(C)(C)O)Nc1cc(N2CCN(C)CC2)n2nccc2n1` (centres unmarked) [CBK037103], the viability at 28.5 h, 10 µM was found to be 98.2%.
Consider `COC(=O)c1ccc(SCc2nc(N3CCOCC3)c3c(c2C#N)CC(C)(C)OC3)o1` [CBK019077], for which the viability at 28.5 h, 10 µM turned out to be 114%.
Next, `CCCS(=O)(=O)Nc1nccnc1N1CCN(c2ccc3c(c2)OCO3)CC1` [CBK048824]: 93.6%.
Next, `c1ccc(-c2nnc(Cn3cncn3)o2)cc1` [CBK011113]: 88%; `CN(Cc1cccnc1)C(=O)CSC(c1ccccc1)c1ccccc1` [CBK298284]: 90.7%; `O=C(Nc1ccc(-c2cccc(F)c2)cc1)c1ccccc1Cn1cncn1` [CBK285565]: 95.6%.
On to `CN(C)CCN(C)c1nc(-c2ccc3[nH]ccc3c2)cn2ccnc12` [CBK066276], for which the viability at 28.5 h, 10 µM turned out to be 94.4%.
Take `CCc1nc2ccc(C(=O)NC3=NN(c4ccccc4)C(=O)C3)cn2c1N(C)C(=O)COc1ccccc1` [CBK145873]: the viability at 28.5 h, 10 µM stood at 91.3%.
For the molecule `Brc1c(OCc2ccccc2)ccc2[nH]ccc12` [CBK160845], the viability at 28.5 h, 10 µM was 96.5%.
Next, `COc1ccc(OC)c(Nc2nc(NCC3CCCO3)c3ccccc3n2)c1` (centres unmarked) [CBK268403C]: 90.9%; `CN(C)C(=O)c1ccc(-c2ccc(COC3CCN(C(=O)Cc4ccc(F)cc4)CC3)c(S(C)(=O)=O)c2)cc1` [CBK155963]: 96.1%.
As for `Cc1cnn(CCC(=O)N2CCOC(c3nc(C(C)(C)C)n[nH]3)C2)c1` (centres unmarked) [CBK305336], the viability at 28.5 h, 10 µM is 110%.
For the molecule `CSc1nnc(-c2cccc(C)c2)n1CC(C)C` [CBK076764T], the viability at 28.5 h, 10 µM came out at 89.1%.
With `O=C1CCc2cccc(OCCO)c21` [CBK001442], the viability at 28.5 h, 10 µM is 92.7%.
Next, `Cn1cccc1C(=O)N[C@H]1CCN2C(=O)N(c3cccc(F)c3)C(=O)[C@@H]2C1` [CBK289549]: 88.8%; `CCN(CC)C(=O)CN1CCC(Oc2cncc(OCc3ccc(Cl)c(Cl)c3)n2)C1` (centres unmarked) [CBK084431]: 98.2%; `CN(C)S(=O)(=O)c1ccc(Cl)c(C(=O)Nc2cccc([N+](=O)[O-])c2)c1` [CBK265721]: 103%.
Take `COCC(=O)NC1CC(C)(C)Cc2c1cnn2-c1ccc(C)cc1` (centres unmarked) [CBK282866]: the viability at 28.5 h, 10 µM worked out at 118%.
On to `CC(NC(=O)c1n[nH]c2c1CCC2)c1cccnc1` (centres unmarked) [CBK281488], for which the viability at 28.5 h, 10 µM came to 93.7%.
Turning to `CC(C)CCNC(=O)CC(=O)Nc1ccc(C(=O)O)cc1` [CBK286721], the viability at 28.5 h, 10 µM is 85.5%.
Regarding `Cc1cccnc1Nc1ccc(C2CCCN(C(=O)Cc3c[nH]c4ccccc34)C2)nc1` (centres unmarked) [CBK285968], the viability at 28.5 h, 10 µM was determined as 97.7%.
Turning to `COCC(C)NC(=O)CCn1ccc2ccncc21` (centres unmarked) [CBK285172], the viability at 28.5 h, 10 µM was 93.8%.
In the case of `CC1(C)C2C(=O)C(c3ccccn3)=C(N)N2C(C)(C)C1(C)C` (centres unmarked) [CBK022153], the viability at 28.5 h, 10 µM stood at 110%.
`O=C(O)CCc1nc(-c2ccc3[nH]ccc3c2)no1` [CBK287070]: the viability at 28.5 h, 10 µM came to 99.3%.
As to `Cc1cc(Cl)ccc1NC(=O)COCC(=O)O` [CBK057723], the viability at 28.5 h, 10 µM amounted to 104%.
For the molecule `Cc1ccc(CNC(=O)Cn2nnc(-c3ccc(CNCC(F)(F)F)cc3)n2)cc1` [CBK153204T], the viability at 28.5 h, 10 µM was 116%.
On to `CC(NC1=NC(C)(C)Cc2ccccc21)C(=O)O` (centres unmarked) [CBK262575], for which the viability at 28.5 h, 10 µM is 89%.
As for `CCNC(=O)N1CC2(CCN(CCSC)CC2)c2ccccc21` [CBK126709], the viability at 28.5 h, 10 µM amounted to 101%.
As for `CSc1ncnc2c1CC=N2` [CBK007532], the viability at 28.5 h, 10 µM was found to be 96.4%.
Take `Cc1cccc2c3c([nH]c12)C1(CCN(CC2CC2)C1)NCC3` (centres unmarked) [CBK039520]: the viability at 28.5 h, 10 µM came to 95.8%.
As to `C[C@H](Nc1nc(-c2cc(C(F)(F)F)cc(C(F)(F)F)c2)cnc1N)c1ccccc1` [CBK063768], the viability at 28.5 h, 10 µM turned out to be 106%.
Consider `C(=C\c1ccccc1)/CN1CCN(C2CCN(CCc3ccccc3)CC2)CC1` [CBK261923], for which the viability at 28.5 h, 10 µM is 108%.
Take `CC(=O)Nc1ccc(-c2nc3cnccc3o2)cc1` [CBK287975]: the viability at 28.5 h, 10 µM amounted to 85.9%.
With `c1ccc2cc(-c3cncc(NCc4ccncc4)n3)ccc2c1` [CBK037899], the viability at 28.5 h, 10 µM worked out at 92.2%.
Then `O=C(NCc1ccc(F)cc1)c1ncoc1-c1cccs1` [CBK283976], with 91.7%.
With `O=C(Cn1cccn1)NC(Cc1ccsc1)c1nccs1` (centres unmarked) [CBK284666], the viability at 28.5 h, 10 µM amounted to 94%.
Turning to `COc1cc(C(C)=O)ccc1OCCCN1CCC(O)(C(=O)c2ccc(Cl)c(Cl)c2)CC1` [CBK024875C], the viability at 28.5 h, 10 µM came to 97.6%.
`O=C1CCCN1CCCNc1nccnc1-c1ccncc1` [CBK036832]: the viability at 28.5 h, 10 µM turned out to be 106%.
Regarding `COC(=O)c1cc(Br)ccc1NC(=O)COc1ccccc1C` [CBK263715], the viability at 28.5 h, 10 µM amounted to 89.4%.
With `Cc1cc2n(n1)[C@@H](C(F)F)C[C@@H](C1CCCN(C(=O)C(C)C)C1)N2` (some centres unmarked) [CBK284722], the viability at 28.5 h, 10 µM was determined as 96.1%.
As to `Cc1nnc(SCCn2c(N3CC(C)CC(C)C3)nc3c2c(=O)n(C)c(=O)n3C)s1` (centres unmarked) [CBK269419], the viability at 28.5 h, 10 µM was 100%.
For the molecule `Cn1c(SCc2nnc(-c3ccccc3)o2)nnc1C(O)c1ccccc1` (centres unmarked) [CBK269640], the viability at 28.5 h, 10 µM turned out to be 92.3%.
As to `COc1ccc(SCC(=O)O)cc1` [CBK111455], the viability at 28.5 h, 10 µM worked out at 93.7%.
On to `N#CCCCN1CCC2(CC1)CN(C(=O)CO)c1ccccc12` [CBK137007], for which the viability at 28.5 h, 10 µM worked out at 86%.
Next, `Cc1ccc(C(=O)/C=C(\Nc2cccc(C(F)(F)F)c2)C(=O)O)cc1` [CBK264366]: 101%; `CC(C)c1nccn1CC(=O)NCCOc1ccc(F)cc1` [CBK281597]: 89.6%.
Turning to `O=C(c1c[nH]c(-c2ncn[nH]2)c1)c1ccc(Cl)cc1Cl` [CBK008334], the viability at 28.5 h, 10 µM was 93.4%.
Take `O=C(CC1CCCCC1)Nc1ccc(Cl)nc1` [CBK091349]: the viability at 28.5 h, 10 µM amounted to 83.5%.
As for `CCn1c(=O)sc2cc(Br)ccc21` [CBK026526], the viability at 28.5 h, 10 µM was found to be 97%.
On to `CNC(=O)C1(C)CCCN1C(=O)c1cc2cc(C)ccc2n1C` (centres unmarked) [CBK281375], for which the viability at 28.5 h, 10 µM amounted to 86.1%.
Then `CC(=O)N[C@H](C(=O)N1CC[C@H]2NC(=O)[C@@H](Cc3ccccc3)NC(=O)C3(C/C=C/C[C@H]2C1)CCOCC3)[C@@H](C)OC(C)(C)C` [CBK292203], with 103%.
For the molecule `Cc1ccc(C(=O)NC(C)c2nc3ccccc3n2Cc2ccc(C(=O)O)o2)cc1` (centres unmarked) [CBK295159], the viability at 28.5 h, 10 µM was 107%.
On to `CC(=O)N1N=C(c2cccnc2)OC1(C)C` [CBK023619], for which the viability at 28.5 h, 10 µM worked out at 90.4%.
For the molecule `CN(C)CCN(C)C(=O)c1cc(-c2ccc(Cl)cc2)[nH]n1` [CBK115928], the viability at 28.5 h, 10 µM was determined as 94.9%.
Take `O=[N+]([O-])c1cccc(Cn2c(CO)nc3ccccc32)c1` [CBK297515]: the viability at 28.5 h, 10 µM stood at 95.4%.
Then `Cc1cc(-c2cccs2)c(C#N)c(SCc2cccnc2)n1` [CBK270172], with 81%; and `O=C(O)CSc1ccc(Cl)cc1` [CBK115571], with 88.4%; and `Clc1cccc(-c2cc(NCc3cccs3)n3nccc3n2)c1` [CBK037238], with 105%.
For the molecule `CC(C)Cn1c(-c2ccc(F)cc2)cnc1SC(C)C(=O)NC(N)=O` (centres unmarked) [CBK295635], the viability at 28.5 h, 10 µM was 91.9%.
As to `CC(C)c1ccc(N2C(=O)[C@@H]3C[C@@H](NC(=O)c4ccnc(Cl)c4)CCN3C2=O)cc1` [CBK289544], the viability at 28.5 h, 10 µM came out at 102%.
With `CCCCc1ccc(S(=O)(=O)c2cnc(SCC(=O)Nc3ccc(Cl)cc3)[nH]c2=O)cc1` [CBK300539], the viability at 28.5 h, 10 µM was found to be 106%.
`CC1CCN(S(=O)(=O)N2CCNCC2)CC1` [CBK269836C]: the viability at 28.5 h, 10 µM stood at 91.5%.
With `Cc1c(C(=O)Nc2ccc(S(=O)(=O)NCC3CCCO3)cc2)cccc1[N+](=O)[O-]` (centres unmarked) [CBK267533], the viability at 28.5 h, 10 µM amounted to 94.5%.
As for `CCCCOc1ccc(C(N)CC(=O)O)cc1` (centres unmarked) [CBK262915], the viability at 28.5 h, 10 µM worked out at 86.8%.
For the molecule `O=C(Nc1cccnc1)c1cc2cc(Cl)ccc2[nH]1` [CBK107261], the viability at 28.5 h, 10 µM turned out to be 88.7%.
As for `Cn1nc(C(=O)NCC(c2ccccc2Cl)N2CCOCC2)ccc1=O` (centres unmarked) [CBK305886], the viability at 28.5 h, 10 µM amounted to 87.3%.
Then `O=C1/C(=C/NCc2cccnc2)C(c2ccccc2)=NN1c1ccc([N+](=O)[O-])cc1` [CBK262911], with 97.6%; and `COc1cccc(C(O)CN2CCC3(CC2)CC(O)c2cc(C)ccc2O3)c1` (centres unmarked) [CBK286338], with 88.4%; and `CN1CCC(N2CCN(C(=O)c3ccccc3Nc3cccc(C(F)(F)F)c3)CC2)CC1` [CBK149097], with 88.7%.
In the case of `COc1ccc(-n2cc(-c3ccc(F)cc3)nn2)cc1` [CBK113111], the viability at 28.5 h, 10 µM amounted to 102%.
`Cc1c(C(=O)O)[nH]c2c1C(=O)CCC2` [CBK015548]: the viability at 28.5 h, 10 µM came to 97.5%.
As to `CC1(C(=O)O)COC(c2ccc([N+](=O)[O-])cc2)OC1` (centres unmarked) [CBK286737], the viability at 28.5 h, 10 µM was 87.1%.
Next, `Cc1ccc(S(=O)(=O)N2CCOCC2)cc1C(=O)NCc1ccco1` [CBK269677]: 102%; `Cc1ccn2cc(-c3ccc4c(c3)CCN4S(C)(=O)=O)nc2c1` [CBK285221]: 88.3%; `CCc1ccc(NC(=O)CN(CCO)Cc2cc(Br)ccc2F)cc1` [CBK305968]: 84.8%.
On to `COCCNC(=O)Nc1ccc2nc(-c3ccccn3)c(-c3ccccn3)nc2c1` [CBK265151], for which the viability at 28.5 h, 10 µM was 89.9%.
On to `O=C1CCCN1CCCNC(=O)N1CCCCC1CO` (centres unmarked) [CBK155985], for which the viability at 28.5 h, 10 µM was 91.8%.

The values are drawn from PMC12040169 (PLOS Biology, 2025).
